From patent publication US9102752B2, “Peptide vaccine for prevention and immunotherapy of dementia of the Alzheimer's type” (United Biomedical, Inc., priority 2013, dated 2015)

Test system: anti-Aβ antibodies in sera from vaccinated baboons
Test: Epitope mapping, 10-mer peptide-based ELISA with sera from vaccinated baboons
Settings: peptide as plate coating
Protocol: Fine specificity analyses of anti-Aβ antibodies in immunized hosts or vaccines were determined by epitope mapping.
These nested peptides were used individually to coat microtiter wells as solid-phase immunoadsorbents for ELISA tests. The positive control ELISA plate was coated with Aβ1-28. They were tested for antibody binding with the sera from the four immunized baboons, from weeks 0, 10, 84 and 111. Baboon sera were serially diluted and assayed on plates coated with a 10-mer peptide at 5 ug/mL.

**Q.** For 8 (TEEISEVKMD) [Peptide 8], which “ELISA Titer titers (Log10)” value (0 weeks post immunization) is on record?
**A.** Its value is 0.23 Log10.

**Q.** What about the “ELISA Titer titers (Log10)” value (10 weeks post immunization) of the same substance?
**A.** The value was 0.26 Log10.

**Q.** And the “ELISA Titer titers (Log10)” value (84 weeks post immunization)?
**A.** The value was 0.16 Log10.

**Q.** And the “ELISA Titer titers (Log10)” value (111 weeks post immunization)?
**A.** The value was 0.15 Log10.

**Q.** How did the “ELISA Titer titers (Log10)” value (0 weeks post immunization) turn out when 9 (EEISEVKMDA) [Peptide 9] was run?
**A.** Its value is 0.24 Log10.

**Q.** What about the “ELISA Titer titers (Log10)” value (10 weeks post immunization) of the same substance?
**A.** Its value is 0.30 Log10.

**Q.** And the “ELISA Titer titers (Log10)” value (84 weeks post immunization)?
**A.** The value was 0.21 Log10.

**Q.** And the “ELISA Titer titers (Log10)” value (111 weeks post immunization)?
**A.** The value was 0.22 Log10.

**Q.** With 10 (EISEVKMDAE) [Peptide 10] as the substance, how does the “ELISA Titer titers (Log10)” value (0 weeks post immunization) read?
**A.** Its value is 0.23 Log10.

**Q.** And the “ELISA Titer titers (Log10)” value (10 weeks post immunization)?
**A.** Its value is 0.25 Log10.

**Q.** What about the “ELISA Titer titers (Log10)” value (84 weeks post immunization) of the same substance?
**A.** The value was 0.16 Log10.

**Q.** What about the “ELISA Titer titers (Log10)” value (111 weeks post immunization) of the same substance?
**A.** Its value is 0.14 Log10.

**Q.** Which “ELISA Titer titers (Log10)” value (0 weeks post immunization) does the source give for 11 (ISEVKMDAEF) [Peptide 11] here?
**A.** The value was 0.20 Log10.

**Q.** And the “ELISA Titer titers (Log10)” value (10 weeks post immunization)?
**A.** Its value is 0.20 Log10.

**Q.** What about the “ELISA Titer titers (Log10)” value (84 weeks post immunization) of the same substance?
**A.** The value was 0.15 Log10.

**Q.** And the “ELISA Titer titers (Log10)” value (111 weeks post immunization)?
**A.** Its value is 0.13 Log10.

**Q.** For 12 (SEVKMDAEFR) [Peptide 12], which “ELISA Titer titers (Log10)” value (0 weeks post immunization) is on record?
**A.** The value was 0.21 Log10.

**Q.** And the “ELISA Titer titers (Log10)” value (10 weeks post immunization)?
**A.** The value was 0.24 Log10.

**Q.** What about the “ELISA Titer titers (Log10)” value (84 weeks post immunization) of the same substance?
**A.** The value was 0.16 Log10.

**Q.** And the “ELISA Titer titers (Log10)” value (111 weeks post immunization)?
**A.** The value was 0.13 Log10.

**Q.** 13 (EVKMDAEFRH) [Peptide 13] was tested. Which “ELISA Titer titers (Log10)” value (0 weeks post immunization) did it give?
**A.** The value was 0.19 Log10.

**Q.** What about the “ELISA Titer titers (Log10)” value (10 weeks post immunization) of the same substance?
**A.** The value was 0.23 Log10.

**Q.** And the “ELISA Titer titers (Log10)” value (84 weeks post immunization)?
**A.** Its value is 0.16 Log10.

**Q.** What about the “ELISA Titer titers (Log10)” value (111 weeks post immunization) of the same substance?
**A.** The value was 0.14 Log10.

**Q.** Which “ELISA Titer titers (Log10)” value (0 weeks post immunization) does the source give for 14 (VKMDAEFRHD) [Peptide 14] here?
**A.** The value was 0.27 Log10.

**Q.** What about the “ELISA Titer titers (Log10)” value (10 weeks post immunization) of the same substance?
**A.** Its value is 0.46 Log10.

**Q.** What about the “ELISA Titer titers (Log10)” value (84 weeks post immunization) of the same substance?
**A.** The value was 0.48 Log10.

**Q.** What about the “ELISA Titer titers (Log10)” value (111 weeks post immunization) of the same substance?
**A.** Its value is 0.55 Log10.

**Q.** What does the source list for 15 (KMDAEFRHDS) [Peptide 15]?
**A.** ELISA Titer titers (Log10) (0 weeks post immunization): 0.26 Log10; ELISA Titer titers (Log10) (10 weeks post immunization): 0.36 Log10; ELISA Titer titers (Log10) (84 weeks post immunization): 0.41 Log10; ELISA Titer titers (Log10) (111 weeks post immunization): 0.51 Log10

**Q.** For 16 (MDAEFRHDSG) [Peptide 16], which “ELISA Titer titers (Log10)” value (0 weeks post immunization) is on record?
**A.** The value was 0.26 Log10.

**Q.** What about the “ELISA Titer titers (Log10)” value (10 weeks post immunization) of the same substance?
**A.** The value was 0.32 Log10.

**Q.** What about the “ELISA Titer titers (Log10)” value (84 weeks post immunization) of the same substance?
**A.** Its value is 0.16 Log10.

**Q.** And the “ELISA Titer titers (Log10)” value (111 weeks post immunization)?
**A.** The value was 0.17 Log10.

**Q.** What does the source list for 17 (AEFRHDSGYE) [Peptide 17]?
**A.** ELISA Titer titers (Log10) (0 weeks post immunization): 0.25 Log10; ELISA Titer titers (Log10) (10 weeks post immunization): 0.35 Log10; ELISA Titer titers (Log10) (84 weeks post immunization): 0.25 Log10; ELISA Titer titers (Log10) (111 weeks post immunization): 0.19 Log10

**Q.** Which “ELISA Titer titers (Log10)” value (0 weeks post immunization) does the source give for 18 (EFRHDSGYEV) [Peptide 18] here?
**A.** The value was 0.24 Log10.

**Q.** And the “ELISA Titer titers (Log10)” value (10 weeks post immunization)?
**A.** Its value is 0.30 Log10.

**Q.** What about the “ELISA Titer titers (Log10)” value (84 weeks post immunization) of the same substance?
**A.** Its value is 0.18 Log10.

**Q.** What about the “ELISA Titer titers (Log10)” value (111 weeks post immunization) of the same substance?
**A.** The value was 0.18 Log10.
